Experimental findings from US10344019B2 (priority 2010, dated 2019) are described below.

Structures are written as SMILES. Where two headings read alike, the source gives them in different places.

Test in all cases: microbe, parasite or virus in culture
Common to all, as to format: cell-based

The subject of test [1] is HCV 1a RLuc cells (dicistronic genotype 1a H77 replicon, RLuc reporter). Particulars: Hepatitis C virus, read-out: 1a. The procedure, abridged: (§1)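 Replicon cells stably carrying the listed RLuc-encoding dicistronic replicons were seeded and treated with DMSO serial dilutions of compound (10 mM stocks) diluted into culture medium. After 72 h, cells were lysed and Renilla luciferase activity measured. EC50 was derived by non-linear regression.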

Test [2] concerns HCV 1b RLuc cells (dicistronic genotype 1b Con1 replicon, RLuc reporter). Particulars: Hepatitis C virus, read-out: 1b (nM). The procedure, abridged: as §1
The subject of test [3] is HCV 2a JFH-1 Rluc cells (dicistronic genotype 2a JFH-1 replicon, RLuc reporter). Particulars: Hepatitis C virus, genotype 2a JFH-1 replicon, read-out: 2a JFH. The procedure, abridged:
as §1
(Replicon systems follow genome replication, usually without infectious particles.)

Test [4] relates to HCV 3a RLuc cells (NS5A chimeric genotype 1b Con1 replicon with consensus genotype 3a NS5A gene). Particulars: Hepatitis C virus. The procedure, abridged:
as §1

The subject of test [5] is HCV 4a Rluc cells (NS5A chimeric genotype 1b Con1 replicon with genotype 4a NS5A gene). Particulars: Hepatitis C virus, read-out: 4a. The procedure, abridged:
as §1

[6] abbreviates: genotype 1a H77 replicon, RLuc reporter.
Where [7] appears, read: read-out: 3a, genotype 3a NS5A chimeric 1b Con1 replicon.
Where [8] appears, read: read-out: 3a, genotype 3a replicon.
Where [9] appears, read: 72 h, Table 2, genotype 1a H77 replicon, 72 hours.
[10] abbreviates: read-out: 3a, Table 2, genotype 3a NS5A chimeric replicon.

Take `COC(=O)N[C@@H](C(=O)N1CCC[C@H]1c1ncc(-c2ccc3cc(-c4ccc5c(c4)CCc4nc([C@@H]6CCCN6C(=O)[C@@H](NC(O)OC)C6CCN(S(C)(=O)=O)CC6)[nH]c4-5)ccc3c2)[nH]1)c1ccccc1` (stereo partly shown) [Example 281]: the EC50 was 1 to 999 pM in test [1] (setting [6]); 0.063 nM in test [2]; 1 to 999 pM in test [3] (RLuc reporter); 1 to 990 pM in test [4] (setting [7]); 1 to 990 pM in test [5].
Regarding `COC(=O)N[C@H](C(=O)N1CCC[C@H]1c1ncc(-c2cccc(-c3ccc4cc(-c5cnc([C@@H]6CCCN6C(=O)[C@@H](NC(=O)OC)C(C)C)[nH]5)ccc4c3)c2)[nH]1)C(C)C` [Example 243], the EC50 in test [1] (setting [6]) is more than 44000 pM; in test [2] it was 4.59 nM; in test [3] (RLuc reporter), more than 44000 pM; in test [4] (setting [7]), more than 5000 pM; in test [5] it was 1 to 990 pM.
For the compound `COC(=O)N[C@H](C(=O)N1CC2(CC2)C[C@H]1c1nc(-c2ccc3c(c2)C(F)(F)c2cc(-c4ccc5nc([C@@H]6[C@H]7CC[C@H](C7)N6C(=O)[C@@H](NC(=O)OC)C(C)C)[nH]c5c4)ccc2-3)c(Cl)[nH]1)C(C)C` [Example 382], the EC50 in test [1] (genotype 1a replicon) is 1 to 999 pM; in test [2], 0.006 nM; in test [3] it was more than 44000 pM; in test [4] (setting [8]), more than 5000 pM; in test [5], 1 to 990 pM.
Regarding `COC(=O)N[C@H](C(=O)N1CCC[C@H]1c1nc2ccc3cc(C#Cc4ccc(-c5cnc([C@@H]6CCCN6C(=O)[C@H](NC(=O)OC)c6ccccc6)[nH]5)cc4)ccc3c2[nH]1)[C@@H](C)OC` [Example 268], the EC50 in test [1] (setting [6]) is 1 to 999 pM; in test [2], 0.007 nM; in test [3] (RLuc reporter), 1 to 999 pM; in test [4] (setting [7]), 1 to 990 pM; in test [5] it was 1 to 990 pM.
In the case of `COC(=O)N[C@H](C(=O)N1CCC[C@H]1c1ncc(-c2ccc3cc(-c4ccc(-c5cnc([C@@H]6CC(F)(F)CN6C(=O)[C@H](NC(=O)OC)c6ccccc6)[nH]5)cc4)ccc3c2)[nH]1)C1CCOCC1` [Example 225], the EC50 in test [1] (setting [6]) is 1 to 999 pM; in test [2] it was 0.009 nM; in test [3] (RLuc reporter), 1 to 999 pM; in test [4] (setting [7]), 1 to 990 pM; in test [5] it was 1 to 990 pM.
On to `COC(=O)N[C@H](C(=O)N[C@H](c1nc(-c2ccc3c(c2)C(F)(F)c2cc(-c4ccc5nc([C@@H]6CCCN6C(=O)[C@H](NC(=O)OC)c6ccccc6)[nH]c5c4)ccc2-3)c[nH]1)C(C)C)C1CCOCC1` [Example 227], for which the EC50 in test [1] (setting [6]) is 1000 to 44000 pM; in test [2], 0.025 nM; in test [3] (RLuc reporter), 1 to 999 pM; in test [4] (setting [7]) it was 1 to 990 pM; in test [5], 1 to 990 pM.
In the case of `COC(=O)N[C@H](C(=O)N1CCC[C@H]1c1ncc(-c2ccc3c(c2)CCc2cc(-c4cnc([C@@H]5[C@H]6CC[C@H](C6)N5C(=O)[C@@H](NC(=O)OC)C5CCOCC5)[nH]4)ccc2-3)[nH]1)C1CCOCC1` [Example 79], the EC50 in test [1] (setting [9]) was 1 to 999 pM; in test [2] (72 h) it was 0.231 nM; in test [3] (72 h, Table 2, 72 hours), 1 to 999 pM; in test [4] (setting [10]), 1 to 990 pM; in test [5], 1 to 990 pM.
As for `COC(=O)N[C@H](C(=O)N1CCC[C@H]1c1ncc(-c2ccc3c(c2)C(F)(F)c2cc(-c4ccc5nc([C@@H]6[C@H]7CC[C@H](C7)N6C(=O)[C@H](NC(=O)OC)c6ccccc6)[nH]c5c4)ccc2-3)[nH]1)C1CCOCC1` [Example 56], the EC50 in test [1] (setting [9]) was 1 to 999 pM; in test [2] (72 h), 0.01 nM; in test [3] (72 h, Table 2, 72 hours), 1 to 999 pM; in test [4] (setting [10]), 1 to 990 pM; in test [5], 1 to 990 pM.
As for `COC(=O)N[C@H](C(=O)N1CCC[C@H]1c1nc2ccc(-c3ccc4c(c3)C(F)(F)c3cc(-c5c[nH]c([C@@H]6CCCN6C(=O)[C@H](NC(=O)OC)c6ccccc6)n5)ccc3-4)cc2[nH]1)C(C)C` [Example 217], the EC50 in test [1] (setting [6]) is 1 to 999 pM; in test [2], 0.009 nM; in test [3] (RLuc reporter), 1 to 999 pM; in test [4] (setting [7]), 1 to 990 pM; in test [5], 1 to 990 pM.
As to `COC(=O)N[C@H](C(=O)N1CCC[C@H]1c1nc2ccc3cc(-c4ccc(-c5cnc([C@@H]6[C@H]7CC[C@H](C7)N6C(=O)[C@@H](NC(=O)OC)C6CCOCC6)[nH]5)c(F)c4)ccc3c2[nH]1)C(C)C` [Example 305], the EC50 in test [1] (genotype 1a replicon) was 1 to 999 pM; in test [2], 0.017 nM; in test [3] it was 1 to 999 pM; in test [4] (setting [8]) it was 1 to 990 pM; in test [5] it was 1 to 990 pM.
Turning to `COC(=O)N[C@H](C(=O)N1CCC[C@H]1c1nc2ccc3cc(-c4ccc5c(c4)CCc4nc([C@@H]6[C@H]7CC[C@H](C7)N6C(=O)[C@@H](NC(=O)OC)C6CCOCC6)[nH]c4-5)ccc3c2[nH]1)C(C)C` [Example 89], the EC50 in test [1] (setting [9]) is 1 to 999 pM; in test [2] (72 h), 0.064 nM; in test [3] (72 h, Table 2, 72 hours), 1 to 999 pM; in test [4] (setting [10]), 1 to 990 pM; in test [5], 1 to 990 pM.
As for `CC#Cc1cc(-c2cnc([C@@H]3CCCN3C(=O)[C@@H](NC(=O)OC)C(C)C)[nH]2)ccc1-c1ccc2c(ccc3nc([C@@H]4CCCN4C(=O)[C@@H](NC(=O)OC)C(C)C)[nH]c32)c1` [Example 372], the EC50 was 1 to 999 pM in test [1] (genotype 1a replicon); 0.008 nM in test [2]; 1 to 999 pM in test [3]; 1 to 990 pM in test [4] (setting [8]); 1 to 990 pM in test [5].
For `COC(=O)N[C@H](C(=O)N1CCC[C@H]1c1nc2ccc3cc(-c4ccc5cc(-c6cnc([C@@H]7CCCN7C(=O)[C@H](NC(=O)OC)c7ccccc7)[nH]6)ccc5c4)ccc3c2[nH]1)[C@@H](C)OC` [Example 271], the EC50 is 1 to 999 pM in test [1] (setting [6]); 0.008 nM in test [2]; 1 to 999 pM in test [3] (RLuc reporter); 1 to 990 pM in test [4] (setting [7]); 1 to 990 pM in test [5].
Take `COC(=O)N[C@H](C(=O)N1CC2(C[C@H]1c1ncc(-c3ccc4cc(-c5ccc(-c6cnc([C@@H]7CCCN7C(=O)[C@H](NC(=O)OC)c7ccccc7)[nH]6)cc5)ccc4c3)[nH]1)OCCO2)C(C)C` [Example 43]: the EC50 in test [1] (setting [9]) is 1 to 999 pM; in test [2] (72 h), 0.009 nM; in test [3] (72 h, Table 2, 72 hours), 1 to 999 pM; in test [4] (setting [10]), 1000 to 4990 pM; in test [5], 1 to 990 pM.
Turning to `COC(=O)N[C@@H](C(=O)N1[C@@H]2CC[C@@H](C2)[C@H]1c1ncc(-c2ccc(-c3ccc4c(ccc5nc([C@@H]6C[C@H]7C[C@H]7N6C(=O)[C@H](NC(=O)OC)c6ccccc6)[nH]c54)c3)cc2)[nH]1)c1ccccc1` [Example 334], the EC50 was 1 to 999 pM in test [1] (genotype 1a replicon); 0.009 nM in test [2]; 1 to 999 pM in test [3]; 1 to 990 pM in test [4] (setting [8]); 1 to 990 pM in test [5].
For `COC(=O)N[C@H](C(=O)N1CCC[C@H]1c1ncc(-c2ccc3cc(-c4ccc(-c5cnc([C@@H]6CCCN6C(=O)[C@@H](NC(=O)OC)[C@H](C)OC)[nH]5)cc4)ccc3c2)[nH]1)C(C)C` [Example 241], the EC50 in test [1] (setting [6]) is 1 to 999 pM; in test [2], 0.011 nM; in test [3] (RLuc reporter), 1000 to 44000 pM; in test [4] (setting [7]), 1000 to 4990 pM; in test [5], 1 to 990 pM.
For the compound `COC(=O)N[C@H](C(=O)N1CCC[C@H]1c1ncc(-c2ccc3cc(-c4ccc(-c5cnc([C@@H]6CC7(CC7)CN6C(=O)[C@H](NC(=O)OC)c6ccccc6)[nH]5)cc4)ccc3c2)[nH]1)C1CCOCC1` [Example 236], the EC50 in test [1] (setting [6]) was 1 to 999 pM; in test [2] it was 0.011 nM; in test [3] (RLuc reporter) it was 1 to 999 pM; in test [4] (setting [7]), 1 to 990 pM; in test [5], 1 to 990 pM.
